pEC50: −log10 of the molar value.
Key:
[1] = system: eNOS deficient mice; test: Blood pressure in eNOS deficient mice (tail-cuff); format: in vivo; details: similar dosing, 4 weeks treatment
From the text: (§1) Animals and Treatment (Experiments A-C)
(§2) ApoE and eNOS deficient mice (C57BL/6J background, Jackson Laboratory, Bar Harbor, Me.) were used. All animals were 10-12 weeks of age and weighed 22 to 28 g. Three days before surgery mice were divided into 4 groups (apoE control, n=10-12; apoE with test compounds, n=10-12; eNOS control, n=10-12; eNOS with test compounds, n=10-12) and received either a standard rodent chow (containing 4% fat and 0.001% cholesterol; in the following designated as placebo group) or a standard rodent chow+test compound (10 or 30 mg/kg/d p.o.).
(§3) Blood-pressure was determined in conscious mice using a computerized tail-cuff system (Visitech Systems, Apex, Nc). After treatment of ApoE deficient mice and eNOS deficient mice with the test compounds the blood pressure was compared to the results obtained with a placebo treatment.

[2] = system: ApoE deficient mice; test: Anti-hypertensive effect in ApoE knockout mice (tail-cuff blood pressure); format: in vivo; details: 30 mg/kg/d, 4 months treatment, placebo 115±2 mmHg, p<0.05
From the text: as §1, §2
A Anti-Hypertensive Effect in ApoE Knockout Mice
as §3

[3] = system: eNOS promoter; test: Activation of eNOS transcription (eNOS promoter-luciferase reporter gene assay); format: cell-based, human; details: Homo sapiens, 18 h, 18 h incubation; for maximal fold induction: maximum transcription induction ratio (luciferase with compound / solvent alone), read-out: TIR (max); for pEC50: Endothelial cell, EC50 of transcription induction ratio, determined graphically, human endothelial cell line, read-out: EC-50
In short: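 Human endothelial cell line stably expressing firefly luciferase under a 3.5 kB eNOS promoter fragment, treated 18 h with compounds (0.5% DMSO final). Luciferase induction relative to solvent gives transcription induction ratio; EC50 read graphically from ratio versus concentration.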

[4] = system: ApoE deficient mice; test: Improvement of coronary function in diseased ApoE deficient mice (isolated working heart); format: in vivo; details: isolated hearts of ApoE deficient mice, 30 mg/kg/d p.o. for 8 weeks
From the text: D Improvement of Coronary Function in Diseased ApoE Deficient Mice
Old Male wild-type C57BL/6J mice (Charles River Wiga GmbH, Sulzfeld), and apoE deficient mice (C57BL/6J background, Jackson Laboratory, Bar Harbor, Me.) 6 month of age and weighing 28 to 36 g were used in the experiments. Mice were divided into 3 groups (C57BL/6, n=8; apoE control, n=8; apoE with respective compound, n=8) and received for 8 weeks either a standard rodent chow (containing 4% fat and 0.001% cholesterol) or a standard rodent chow+respective compound (30 mg/kg/d p.o.).
Mice were anesthetized with sodium pentobarbitone (100 mg/kg i.p.), and the hearts were rapidly excised and placed into ice-cold perfusion buffer. The aorta was cannulated and connected to a perfusion apparatus (HUGO SACHS ELECTRONICS, Freiburg, Germany) which was started immediately at a constant perfusion pressure of 60 mm Hg. Hearts were perfused in a retrograde fashion with modified Krebs bicarbonate buffer, equilibrated with 95% O2 and 5% CO2 and maintained at 37.5° C.
A beveled small tube (PE 50) was passed through a pulmonary vein into the left ventricle and pulled through the ventricular wall, anchored in the apex by a fluted end, and connected to a tip-micromanometer (Millar 1.4 French). The left atrium was cannulated through the same pulmonary vein and the heart switched to the working mode with a constant preload pressure of 10 mm Hg and an afterload pressure of 60 mm Hg. Aortic outflow and atrial inflow were continuously measured using ultrasonic flow probes (HSE/Transonic Systems Inc.). Coronary flow was calculated as the difference between atrial flow and aortic flow. All hemodynamic data were digitized at a sampling rate of 1000 Hz and recorded with a PC using specialized software (HEM, Notocord).
Hearts were allowed to stabilize for 30 min. All functional hemodynamic data were measured during steady state, and during volume- and pressure loading.
Left ventricular function curves were constructed by varying pre-load pressure. […]

[5] = system: ApoE deficient mice; test: Inhibition of neointima formation and atherogenesis (femoral artery cuff) in ApoE deficient mice; format: in vivo; details: 10 mg/kg/d in chow, 3 days before to 14 days after cuff surgery, versus placebo
From the text: as §1, §2
B Inhibition of Neointima Formation and Atherogenesis (Femoral Artery Cuff)
After 3 day treatment of ApoE deficient mice with the respective compound, (10 mg/kg/d pressed in chow), animals were anesthetized with an intraperitoneal injection of pentobarbital (60 mg/kg) followed by an intramuscular injection of xylazin (2 mg/kg) and a cuff was placed around the femoral artery as described in Moroi et al. (J. Clin. Invest. 101: 1225-32, 1998). Briefly, the left femoral artery was dissected. […] The aorta were taken for determination of vascular eNOS expressions by quantitative western blotting. […] For each cross section the area of the lumen, the neointima and the media were determined. […] The ratio between the area of the neointima and the area of the media was expressed as the neointima/media ratio.

[6] = system: vascular eNOS expression; test: Vascular eNOS expression (aorta, quantitative western blotting) in femoral artery cuff model; format: in vivo; details: ApoE deficient mice, 10 mg/kg/d, versus placebo
Description: After 3 day treatment of ApoE deficient mice with the respective compound, (10 mg/kg/d pressed in chow), animals were anesthetized with an intraperitoneal injection of pentobarbital (60 mg/kg) followed by an intramuscular injection of xylazin (2 mg/kg) and a cuff was placed around the femoral artery as described in Moroi et al. (J. Clin. Invest. 101: 1225-32, 1998). Briefly, the left femoral artery was dissected. A non-occlusive 2.0 mm polyethylene cuff made of PE-50 tubing (inner diameter 0.56 mm, outer diameter 0.965 mm, Becton Dickinson, Mountain View, Calif.) was placed around the artery and tied in place with two 7-0 sutures. The right femoral artery was isolated from the surrounding tissues but a cuff was not placed. Treatment with the respective compound was continued for 14 days after surgery. Then the animals were sacrificed. The aorta were taken for determination of vascular eNOS expressions by quantitative western blotting. Both femoral arteries were harvested, fixed in formalin and embedded in paraffin. 20 cross sections (10 μm) were cut from the cuffed portion of the left femoral artery and from the corresponding segment of the right artery. […] For each cross section the area of the lumen, the neointima and the media were determined. […] The ratio between the area of the neointima and the area of the media was expressed as the neointima/media ratio.

[7] = system: vascular eNOS expression; test: Vascular eNOS expression (femoral arteries) after chronic treatment; format: in vivo; details: ApoE deficient mice, 16 weeks treatment
Description: ApoE deficient mice were treated for 16 weeks with the respective compound pressed in chow and finally sacrificed. Aortas were removed from each mouse, fixed in formalin and embedded in paraffin. Plaque formation was measured via lipid lesion formation in the aortas (from aortic arch to diaphragm) and was analyzed by oil red O staining. For quantifying the effect of the respective compound on vascular eNOS expression the femoral arteries were used in this experiment.

pEC50 [3] | melting point | SMILES | blood pressure reduction [1] | blood pressure [2] | maximal fold induction [3] | pre-load dependent coronary flow [4] | incidence of ventricular arrhythmias ([4]; indicator for anti-ischemic efficacy) | coronary flow ([4]; untreated ApoE 3.6, wildtype 4.95 ml/min) | reduction of neo-intima formation (factor) [5] | vascular eNOS expression enhanced by a factor [6] | vascular eNOS expression up-regulation [7]
6.10 | – | O=C(NC1Cc2ccccc2C1)c1ccc(F)cc1 [Compound 21, 4-FLUORO-N-(INDAN-2-YL)-BENZAMIDE] | No blood pressure reduction | 92±5 mmHg | 4.1 | improvement | reduction | 5 mL/min | 2 | 2.1 | 1.75 fold
6.85 | 147.5 °C | O=C(NC1Cc2ccccc2C1)c1ccc2c(c1)OC(F)(F)O2 [Compound 66, 2,2-DIFLUORO-BENZO[1,3]DIOXOL-5-CARBOXYLIC ACID INDAN-2-YLAMIDE] | – | – | 2.7 | – | – | – | – | – | –
4.52 | 157 °C | O=C(NC1Cc2cccc(-c3ccc(F)cc3)c2C1)c1ccc(F)cc1 (centres unmarked) [Compound 398B, 4-FLUORO-N-[4-(4-FLUOROPHENYL)-INDAN-2-YL]-BENZAMIDE] | – | – | 3.46 | – | – | – | – | – | –
– | 135 °C | CC(O)c1ccc2c(c1)CC(NC(=O)c1ccc(F)cc1)C2 (centres unmarked) [Compound 402, 4-FLUORO-N-[5-(1-HYDROXY-ETHYL)-INDAN-2-YL]-BENZAMIDE] | – | – | – | – | – | – | – | – | –
4.92 | 199 °C | O=C(NC1Cc2ccc(O)cc2C1)c1ccc(F)cc1 (centres unmarked) [Compound 404, 4-FLUORO-N-(5-HYDROXY-INDAN-2-YL)-BENZAMIDE] | – | – | 3.5 | – | – | – | – | – | –
